Experimental data from US9359298B2, “Cajanine structure analogous compound, preparation method and use” (INSTITUTE OF MEDICINAL BIOTECHNOLOGY, CHINESE ACADEMY OF …, priority 2011, dated 2016).
≈ marks a conversion by molar mass, not a printed value. Read-outs that look alike come from different tables or passages of the source.

Tests used:
Format in all cases: cell-based
[1] = system: Influenza A virus (hanfang359/95); experiment: Determination of anti-influenza virus activity (CPE in MDCK cells); conditions: for IC50: Influenza A virus, MDCK, 36 h; for anti-influenza virus activities compared with the lead compound cajanine: statement in words
[2] = system: Coxsackie virus B6; experiment: Coxsackie virus activity assay (CPE in Vero cells); conditions: for IC50: Vero
[3] = system: HCV; experiment: Anti-hepatitis C virus (HCV) activity assay (HCV RNA in Huh7.5 cells); conditions: for EC50: Hepatitis C virus, Huh7.5, 72 h, read-out: HCV EC50
Description: Inoculate Huh7.5 cells into 96-well plates to a density of 3×10^4 cells/cm^2, culture for 24h, infect the cells with 45 IU/cell HCV supernatant, meanwhile, add drug solutions or solvent control for treatment.

[4] = system: HIV-1 III B virus; experiment: Anti-HIV activity assay (P24 antigen in MT-4 cells); conditions: for IC50: Human immunodeficiency virus 1, MT4, 96 h, read-out: HIV IC50
[5] = system: PC12 cells; experiment: Neuroprotective activity assay, serum-deprived injury to PC12 cells (MTT); conditions: for viability at 10 µM: Rattus norvegicus, PC-12, 48 h, read-out: serum-deprived (surviving PC12 cells, MTT 570 nm); for protective effect on serum-deprived injury to PC12 cells: statement in words
Method in brief: (§1)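 Survival measured as MTT absorbance at 570 nm after 4 h dye uptake. Compounds (10 μM) were co-applied for 48 h to PC12 cells deprived of serum or exposed to 4 μM rotenone, following 24 h seeding on poly-lysine.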

[6] = system: PC12 cells; experiment: Neuroprotective activity assay, rotenone injury to PC12 cells (MTT); conditions: for viability at 10 µM: Rattus norvegicus, PC-12, 48 h, read-out: rotenone (surviving PC12 cells, MTT 570 nm); for protective effect on rotenone injury to PC12 cells: statement in words
Method in brief: as §1

[7] = read-out: COX-B6 IC50, Vero cells, about 100TCID50, CPE, Reed-Muench
[8] = Huh7.5 cells, 72 h, HCV RNA by RT-PCR, Reed-Muench
[9] = MT-4 cells, HIV-1 III B 100TCID50, 96 h, P24 antigen
[10] = 10 μM test compound, 48 h, Control 100.0 ± 9.2, Model 69.3 ± 4.1
[11] = 10 μM test compound, 4 μM rotenone, 48 h, Control 100.0 ± 8.9, Model 73.2 ± 7.8

Compound	IC50 [1] [µg/mL]	IC50 [2, 7] [µg/mL]	EC50 [3, 8] [µg/mL]	IC50 [4, 9] [µg/mL]	viability at 10 µM [5, 10] [%]	viability at 10 µM [6, 11] [%]	also measured
COc1cc(/C=C/c2ccccc2)c(C(=O)O)c(OCN)c1CC=C(C)C [Compound 26b, 2-aminomethoxy-3-isopentenyl-4-methoxy-6-[(E)-styryl]benzoic acid]	3.65 (≈ 9.93 µM)	3.54 (≈ 9.63 µM)	5.66 (≈ 15.4 µM)	7.83 (≈ 21.3 µM)	88.2 ± 4.1	89.7 ± 6.3	
COc1cc(/C=C/c2ccccc2)c(C(=O)O)c(OCC2CNCCN2)c1CC=C(C)C (centres unmarked) [Compound 26e, 2-(piperazin-2-yl)methoxy-3-isopentenyl-4-methoxy-6-[(E)-styryl]benzoic acid]	2.31 (≈ 5.29 µM)	1.32 (≈ 3.02 µM)	2.28 (≈ 5.22 µM)	2.77 (≈ 6.35 µM)	85.6 ± 2.9	87.6 ± 5.6	
COc1cc(/C=C/c2ccccc2)c(C(=O)O)c(OC(=N)N)c1CC=C(C)C [Compound 27b, 2-iso-ureido-3-isopentenyl-4-methoxy-6-[(E)-styryl]benzoic acid]	2.14 (≈ 5.63 µM)	1.24 (≈ 3.26 µM)	1.83 (≈ 4.81 µM)	4.91 (≈ 12.9 µM)	91.5 ± 6.1	92.3 ± 2.6	protective effect on serum-deprived injury to PC12 cells [5]: the strongest activities; protective effect on rotenone injury to PC12 cells [6]: the strongest activities
COc1cc(/C=C/c2ccccc2)c(C(=O)O)c(OC(=O)NN)c1CC=C(C)C [Compound 29b, 2-Hydrazinoformyloxy-3-isopentenyl-4-methoxy-6-[(E)-styryl]benzoic acid]	1.21 (≈ 3.05 µM)						IC50 ([2]; read-out: COX-B6 IC50): 0.67 µg/mL (≈ 1.69 µM); EC50 [3]: 1.36 µg/mL (≈ 3.43 µM); IC50 [4]: 1.88 µg/mL (≈ 4.74 µM); viability at 10 µM [5]: 74.5 ± 4.6%; viability at 10 µM [6]: 78.9 ± 5.6%
COc1cc(/C=C/c2ccccc2)c(C(=O)O)c(OC(=O)C(=O)O)c1CC=C(C)C [Compound 31b, 2-carboxyformyloxy-3-isopentenyl-4-methoxy-6-[(E)-styryl]benzoic acid]	0.54 (≈ 1.32 µM)	1.21 (≈ 2.95 µM)	0.99 (≈ 2.41 µM)	2.8 (≈ 6.82 µM)	88.6 ± 2.6	80.5 ± 6.4	anti-influenza virus activities compared with the lead compound cajanine [1]: significantly stronger than the lead compound cajanine; anti-HCV viral activity ([3]; statement in words): stronger anti-HIV, HCV viral activities; anti-HIV viral activity ([4]; statement in words): stronger anti-HIV, HCV viral activities
COc1cc(/C=C/c2ccccc2)c(C(N)=O)c(O)c1CC=C(C)C [Compound 32, 2-hydroxy-3-isopentenyl-4-methoxy-6-[(E)-styryl]benzamide]	0.21 (≈ 0.622 µM)	0.54 (≈ 1.6 µM)	1.37 (≈ 4.06 µM)	0.16 (≈ 0.474 µM)	94.5 ± 2.3	92.3 ± 1.2	anti-influenza virus activities compared with the lead compound cajanine [1]: significantly stronger than the lead compound cajanine; protective effect on serum-deprived injury to PC12 cells [5]: the strongest activities; protective effect on rotenone injury to PC12 cells [6]: the strongest activities
CC(C)=CCc1c(O)cc(/C=C/c2ccccc2)c(C(=O)O)c1O [Compound 33, 2,4-dihydroxy-3-isopentenyl-6-[(E)-styryl]benzoic acid]							Influenza A virus (hanfang359/95) IC50 [1]: 2.35 µg/mL; COX-B6 IC50 ([2]; Vero cells, about 100TCID50, CPE, Reed-Muench): 2.31 µg/mL; HCV EC50 [3, 8]: 1.55 µg/mL; HIV IC50 [4, 9]: 2.01 µg/mL; serum-deprived (surviving PC12 cells, MTT 570 nm) [5, 10]: 16.8 ± 0.4; rotenone (surviving PC12 cells, MTT 570 nm) [6, 11]: 75.6 ± 2.1
COC(=O)c1c(CCc2ccccc2)cc(OC)c(CC=C(C)C)c1O [Compound 36, methyl 2-hydroxy-3-isopentenyl-4-methoxy-6-phenethyl benzoate]	> 2.46	> 2.46	3.86 (≈ 10.9 µM)	1.06 (≈ 2.99 µM)	41 ± 15.4	72.2 ± 12.2	
COc1cc(CCc2ccccc2)c(C(=O)O)c(O)c1CC=C(C)C [Compound 37, 2-hydroxy-3-isopentenyl-4-methoxy-6-phenethyl benzoic acid]	> 22.2	> 2.05	12.2 (≈ 35.8 µM)	2.09 (≈ 6.14 µM)	29 ± 11.2	60.4 ± 7.8	
methyl 2-hydroxy-3-isopentenyl-4-methoxy-6-(4′-methyl-cyclohexylenemethyl)benzoate [Compound 8n]							Influenza A virus (hanfang359/95) IC50 [1]: >2.06 µg/mL; COX-B6 IC50 [2]: >6.17 µg/mL; HCV EC50 [3, 8]: 1.06 µg/mL; HIV IC50 [4, 9]: 2.17 µg/mL; serum-deprived (surviving PC12 cells, MTT 570 nm) [5, 10]: 53.7 ± 3.8; rotenone (surviving PC12 cells, MTT 570 nm) [6, 11]: 78.0 ± 9.2
